Values quoted from earlier work as cited in patent US11337939B2 (PULMONEM INC., priority 2020, dated 2022).

What was measured:
airway inflammation = settings: ferret
[1] = tested on: human bronchial epithelial cells; settings: stimulated with lipopolysaccharide

absorbed from the gastrointestinal tract (from the gastrointestinal tract): 70%-80%
time to peak serum concentration (serum): 2 to 6 h
SMILES: Nc1ccc(S(=O)(=O)c2ccc(N)cc2)cc1 [Dapsone, 4,4′-diaminodiphenyl sulfone]
airway inflammation (airway inflammation): resolves airway inflammation
IL-8 secretion [1]: inhibits IL-8 secretion
